Assays:
HCV genotype 1b replicon = experiment: HCV replicon assay, genotype 1b replicon EC50; assay type: cell-based, Hepatitis C virus; conditions: Hepatitis C virus, genotype 1b replicon; read-out: EC50 [gt-1b]
Summary of the method: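 Readout was replicon RNA copy number, by 32P-probe protection or TaqMan normalized to cellular cyclophilin A RNA, or luciferase activity for luciferase:Neo^r fusion lines. Cells were exposed to serially diluted compound for 24-48 hours without G418, then washed and lysed. EC50 derived from four-parameter fit relative to DMSO.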

[1] = target: HCV NS3/4A protease genotype 1b (Hepatitis C virus genotype 1b, UniProt P26663); experiment: HCV NS3/4A protease time-resolved fluorescence (TRF) assay, Ki against genotype 1b; assay type: biochemical; conditions: IC50 [gt-1b] (nM), NS3/4A genotype 1b, enzyme 0.2 nM
Summary of the method: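 First, protease (genotype 1b 0.2 nM, A156T 0.4 nM, genotype 3a 0.025 nM) is preincubated 30 min with inhibitor. Next, 25 nM TRF substrate starts the reaction, run 2.5 h at room temperature. Finally, europium fluorescence is read and Ki calculated from IC50.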

Row | Structure (SMILES) | EC50 (HCV genotype 1b replicon) | IC50 [1]
1 | CC(C)(C)OC(=O)N[C@H]1CCCCC/C=C\[C@@H]2C[C@@]2(C(=O)NS(=O)(=O)C2CC2)NC(=O)[C@@H]2C[C@]3(CCc4c(cnc5ccccc45)O3)CN2C1=O [Example 98, tert-butyl {(2R,6S,12Z,13aS,14aR,16aS)-14a-[(cyclopropylsulfonyl)carbamoyl]-5,16-dioxo-1,1′,2′,5,6,7,8,9,10,11,13a,14,14a,15,16,16a-hexadecahydrospiro[cyclopropa[e]pyrrolo[1,2-a][1,4]diazacyclopentadecine-2,3′-pyrano[2,3-c]quinolin]-6-yl}carbamate] | 9.72 nM | 0.057 nM
2 | CC(C)(C)OC(=O)N[C@H]1CCCCC/C=C\[C@@H]2C[C@@]2(C(=O)NS(=O)(=O)C2(C)CC2)NC(=O)[C@@H]2C[C@]3(CCc4c(cnc5ccccc45)O3)CN2C1=O [Example 99, tert-butyl [(2R,6S,12Z,13aS,14aR,16aS)-14a-{[(1-methylcyclopropyl)sulfonyl]carbamoyl}-5,16-dioxo-1,1′,2′,5,6,7,8,9,10,11,13a,14,14a,15,16,16a-hexadecahydrospiro[cyclopropa[e]pyrrolo[1,2-a][1,4]diazacyclopentadecine-2,3′-pyrano[2,3-c]quinolin]-6-yl]carbamate] | 4.53 nM | 0.033 nM
3 | COc1ccc2nc(C3CC3)c3c(c2c1)CC[C@]1(C[C@H]2C(=O)N[C@]4(C(=O)NS(=O)(=O)C5(C)CC5)C[C@H]4/C=C\CCCCC[C@H](NC(=O)OCC(C)C)C(=O)N2C1)O3 [Example 100, 2-methylpropyl [(2R,6S,12Z,13aS,14aR,16aS)-5′-cyclopropyl-9′-methoxy-14a-{[(1-methylcyclopropyl)sulfonyl]carbamoyl}-5,16-dioxo-1,1′,2′,5,6,7,8,9,10,11,13a,14,14a,15,16,16a-hexadecahydrospiro[cyclopropa[e]pyrrolo[1,2-a][1,4]diazacyclopentadecine-2,3′-pyrano[2,3-c]quinolin]-6-yl]carbamate] | 2.08 nM | 0.011 nM
4 | CC(C)(C)OC(=O)N[C@H]1CCCCC/C=C\[C@@H]2C[C@@]2(C(=O)O)NC(=O)[C@@H]2C[C@]3(CCc4c(cnc5ccccc45)O3)CN2C1=O [Example 101, (2R,6S,12Z,13aS,14aR,16aS)-6-[(tert-butoxycarbonyl)amino]-5,16-dioxo-1,1′,2′,6,7,8,9,10,11,13a,14,15,16,16a-tetradecahydrospiro[cyclopropa[e]pyrrolo[1,2-a][1,4]diazacyclopentadecine-2,3′-pyrano[2,3-c]quinoline]-14a(5H)-carboxylic acid] | > 100 nM | 38.2 nM
5 | CC1(OC(=O)N[C@H]2CCCCC/C=C\[C@@H]3C[C@@]3(C(=O)NS(=O)(=O)C3(C)CC3)NC(=O)[C@@H]3C[C@]4(CCc5c(c(C6CC6)nc6ccccc56)O4)CN3C2=O)CC1 [Example 102, 1-methylcyclopropyl [(2R,6S,12Z,13aS,14aR,16aS)-5′-cyclopropyl-14a-{[(1-methylcyclopropyl)sulfonyl]carbamoyl}-5,16-dioxo-1,1′,2′,5,6,7,8,9,10,11,13a,14,14a,15,16,16a-hexadecahydrospiro[cyclopropa[e]pyrrolo[1,2-a][1,4]diazacyclopentadecine-2,3′-pyrano[2,3-c]quinolin]-6-yl]carbamate] | 1.58 nM | 0.004 nM
6 | CC(C)COC(=O)N[C@H]1CCCCC/C=C\[C@@H]2C[C@@]2(C(=O)NS(=O)(=O)C2(C)CC2)NC(=O)[C@@H]2C[C@]3(CCc4c(c(C5CC5)nc5ccccc45)O3)CN2C1=O [Example 103, 2-methylpropyl [(2R,6S,12Z,13aS,14aR,16aS)-5′-cyclopropyl-14a-{[(1-methylcyclopropyl)sulfonyl]carbamoyl}-5,16-dioxo-1,1′,2′,5,6,7,8,9,10,11,13a,14,14a,15,16,16a-hexadecahydrospiro[cyclopropa[e]pyrrolo[1,2-a][1,4]diazacyclopentadecine-2,3′-pyrano[2,3-c]quinolin]-6-yl]carbamate] | 1.51 nM | 0.012 nM
